# Experimental data reported in patent US7495023B2, “Thio semicarbazone and semicarbozone inhibitors of cysteine proteases and methods of their use” (The Regents of the University of California, priority 2002, dated 2009).
# Entries after “also recorded” stand apart in the source; their conditions may differ. Read-outs that look alike come from different tables or passages of the source.
# Columns and labels:
# [1] = tested on: T. cruzi (Y strain); assay: Anti-trypanosomal cell culture assay, T. cruzi-infected J774 macrophages; type: cell-based; conditions: for effect on T. cruzi in cell culture (trypanocidal / trypanostatic / inactive): inhibitor 10 μM, cultures up to 30 days
# Description: Drug Screening in Cell Culture. Mammalian cells are routinely cultured in RPMI-1640 medium supplemented with 5-10% heat-inactivated fetal calf serum (FCS) at 37° C. in 5% CO2. The Y strain of T. cruzi is maintained by serial passage in bovine embryo skeletal muscle (BESM) cells. Infectious trypomastigotes are collected from culture supernatants. For drug assays, J774 macrophages were irradiated (5000 rad) and plated onto six-well tissue culture plates 24 h prior to infection with ˜106 trypomastigotes/well. […] Inhibitor stocks (10 mM) in DMSO were stored at 4° C. J774 monolayers treated with a blank containing DMSO are used as a negative control, and monolayers treated with a known trypanocidal inhibitor, 10 μM N-methyl piperazine-Phe-homoPhe-vinyl sulfone phenyl (N-Pip-F-hF-VSPh) acted as a positive control (Engel et al., J. Exp. Med., 188:725-734 (1998)). RPMI medium with or without inhibitor is replaced every 48 h. Cultures are maintained for up to 30 days and monitored daily by contrast phase microscopy. […] The comparative effectiveness of each inhibitor was estimated from plots of the duration of the intracellular cycle of T. cruzi (days) in treated vs untreated control wells.
# [2] = tested on: T. cruzi; conditions: mouse model; cited from earlier work
# [3] = tested on: T. cruzi; conditions: cited from earlier work
# [4] = Solubility observations (cell culture medium, methanol); type: physicochemical
# [5] = target: T. cruzi cathepsin L-like protease (cruzain) (Trypanosoma cruzi, UniProt P25779); assay: biochemical
# Description: (§1) IC50 Determinations. Inhibitors were screened for effectiveness against the T. cruzi cathepsin L-like protease (cruzain) using purified recombinant protein. Cruzain (1 nM) was incubated with 20-50000 nM inhibitor in 100 mM sodium acetate-5 mM DTT buffer (pH 5.50, buffer A) for 5 min at room temperature. […] The increase in fluorescence (excitation at 355 nm and emission at 460 nm) was followed with an automated microtiter plate spectrofluorimeter (Molecular Devices, spectraMAX Gemini). Inhibitor stock solutions were prepared at 20 mM in DMSO, and serial dilutions were made in DMSO (0.7% DMSO in assay). Controls were performed using enzyme alone and enzyme with DMSO. IC50 values were determined graphically using inhibitor concentrations in the linear portion of a plot of inhibition versus log [I] (seven concentrations were tested, and at least two were in the linear range).
# [6] = tested on: J774 macrophages; assay: Toxicity to mammalian host cells in the cell culture assay; type: cell-based
# Description: Drug Screening in Cell Culture. Mammalian cells are routinely cultured in RPMI-1640 medium supplemented with 5-10% heat-inactivated fetal calf serum (FCS) at 37° C. in 5% CO2. The Y strain of T. cruzi is maintained by serial passage in bovine embryo skeletal muscle (BESM) cells. Infectious trypomastigotes are collected from culture supernatants. For drug assays, J774 macrophages were irradiated (5000 rad) and plated onto six-well tissue culture plates 24 h prior to infection with ˜106 trypomastigotes/well. Parasites are removed 2 h postinfection, and the medium is supplemented with the appropriate cysteine protease inhibitor (10 μM). Inhibitor stocks (10 mM) in DMSO were stored at 4° C. J774 monolayers treated with a blank containing DMSO are used as a negative control, and monolayers treated with a known trypanocidal inhibitor, 10 μM N-methyl piperazine-Phe-homoPhe-vinyl sulfone phenyl (N-Pip-F-hF-VSPh) acted as a positive control (Engel et al., J. Exp. Med., 188:725-734 (1998)). RPMI medium with or without inhibitor is replaced every 48 h. Cultures are maintained for up to 30 days and monitored daily by contrast phase microscopy. […] The comparative effectiveness of each inhibitor was estimated from plots of the duration of the intracellular cycle of T. cruzi (days) in treated vs untreated control wells.
# The toxicity of compounds to mammalian host cells was also evaluated in the assay.
# [7] = tested on: T. cruzi parasites; assay: WHO screen against T. cruzi parasites; type: cell-based
# Description: (§2) Thio semicarbazones have been tested against falcipain 2, which is the cysteine protease of parasites related to malaria. […] The WHO (World Health Organization) helped to screen compound 1i against a couple of parasite strains. It has activity against T. cruzi and P. falciparum parasites.
# [8] = tested on: parasite P. falciparum; assay: WHO screen against P. falciparum parasites; type: cell-based
# Description: as §2
# [9] = target: cruzain (Trypanosoma cruzi, UniProt P25779); type: biochemical; conditions: incubation 90 s to 24 h
# Description: The time dependence of inhibition was determined by incubating cruzain with inhibitors, DMSO, or enzyme alone at room temperature for time points between 90 s and 24 h. The enzymatic activity was determined as above.
# A known irreversible inhibitor, K002 (morpholino urea-Phe-homoPhe-vinyl sulfone benzene; Axys Pharmaceuticals Inc., South San Francisco, Calif.), and a known reversible covalent inhibitor, leupeptin, were used as controls for the thio semicarbazones.
# [10] = target: T1, falcipain-2 (Plasmodium falciparum, UniProt Q8I6U4); assay: Inhibition of falcipain-2; type: biochemical
# T1 sequence (Q8I6U4 244-484): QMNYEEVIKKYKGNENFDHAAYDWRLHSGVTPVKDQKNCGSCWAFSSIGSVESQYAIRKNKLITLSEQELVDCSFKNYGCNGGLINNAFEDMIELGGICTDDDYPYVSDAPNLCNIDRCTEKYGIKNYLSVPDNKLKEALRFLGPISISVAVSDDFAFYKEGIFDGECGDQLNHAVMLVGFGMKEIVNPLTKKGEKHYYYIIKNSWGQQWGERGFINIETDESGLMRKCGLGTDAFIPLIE
# Description: as §2
# [11] = target: human cathepsin B (Homo sapiens, UniProt P07858); assay: Inhibition of cathepsin B protease activity; type: biochemical
# Description: as §1, with “protein.” for “protein. Cruzain (1 nM) was incubated with 20-50000 nM inhibitor in 100 mM sodium acetate-5 mM DTT buffer (pH 5.50, buffer A) for 5 min at room temperature.”
# Enzyme assays to test the ability of thio semicarbazone compounds to inhibit the cysteine protease activity of rhodesain and cathepsin B were carried out as described for assays to test inhibition of protease activity by cruzain. In these assays, inhibition of cruzain is included as a positive control.
# [12] = 5 min incubation, room temperature, pH 5.50, read-out: IC50 against cruzain
# Chain of T. cruzi cathepsin L-like protease (cruzain) (P25779 123-467): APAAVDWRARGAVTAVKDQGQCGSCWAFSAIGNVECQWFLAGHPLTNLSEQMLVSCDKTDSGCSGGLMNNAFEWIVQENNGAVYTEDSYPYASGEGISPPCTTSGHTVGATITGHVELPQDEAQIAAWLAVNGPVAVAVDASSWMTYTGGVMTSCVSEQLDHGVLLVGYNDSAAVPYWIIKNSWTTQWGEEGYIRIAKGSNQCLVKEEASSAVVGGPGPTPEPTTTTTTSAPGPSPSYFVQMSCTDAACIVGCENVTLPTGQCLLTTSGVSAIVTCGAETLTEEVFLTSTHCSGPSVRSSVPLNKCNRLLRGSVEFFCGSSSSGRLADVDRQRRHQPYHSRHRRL
# Chain of cruzain (P25779 123-467): as above
compound,measurement,setting,value
"CN1CCN(C(=O)NC(Cc2ccccc2)C(=O)NC(C=CS(=O)(=O)c2ccccc2)CCc2ccccc2)CC1 (stereo not shown) [N-Pip-F-hF-VSPh, N-methyl piperazine-Phe-homoPhe-vinyl sulfone phenyl, reference compound]",effect on T. cruzi in cell culture (trypanocidal / trypanostatic / inactive),[1],unable to survive
same,outcome of treatment of T. cruzi-infected mice,[2],resulted in a cure
benzyloxy-carbonyl-L-phenylalanyl L-alanine fluoromethyl ketone [Z-Phe-Ala-FMK],effect on replication and differentiation of T. cruzi in cultures,[3],blocks replication and differentiation of the parasite
"CC1CN(C(N)=S)N=C1c1ccc(Cl)c(Cl)c1 (stereo not shown) [Compound 4f, 3-(3,4-Dichlorophenyl)-4-methyl-2-pyrazoline-1-thiocarboxamide]",effect on T. cruzi in cell culture (trypanocidal / trypanostatic / inactive),[1],trypanostatic
same,"solubility in methanol, in words",[4]; methanol,poorest solubility in methanol
same,"cruzain inhibitory activity, in words",[5],better than that of 1i
"NC(=S)NN=Cc1ccc(-c2cccc(Cl)c2)o1 [Compound 1e, 5-(3-Chlorophenyl)-2-furancarboxaldehyde Thio Semicarbazone]",survival of infected host cells,"[1]; compound at 5 μM, untreated infected cells die within 5 days",10 days
same,effect on T. cruzi in cell culture (trypanocidal / trypanostatic / inactive),[1],trypanostatic
same,concentration at which toxicity to host cells was observed,[6],10 µM
same,IC50,[5]; [12],< 300 nM
same,melting point,,198.8 to 199.8 °C
"CCC(=NNC(N)=S)c1cccc(Br)c1 [Compound 1i, 3′-Bromopropiophenone Thio Semicarbazone]",activity against T. cruzi parasites,[7],has activity
same,effect on T. cruzi in cell culture (trypanocidal / trypanostatic / inactive),[1],significant trypanocidal activity; also recorded: cured of trypanosomal infection; also recorded: trypanocidal effect
same,time postinfection that cells stayed healthy and parasite-free,"[1]; treated for three weeks, then compound removed, experiment terminated",≥ 6.5 weeks
same,"toxicity to host cells, in words",[6],without toxicity to host cells
same,"solubility in the cell culture medium, in words",[4],without toxicity to host cells or solubility problems
same,IC50,[8]; Plasmodium falciparum,16000 to 32000 nM
same,activity against P. falciparum parasites,[8]; WHO screen,has activity
same,time dependence of cruzain inhibition,[9],time-dependent
"NC(=S)NN=Cc1ccc(-c2ccc(Cl)cc2)o1 [Compound 1b, 5-(4-Chlorophenyl)-2-furancarboxaldehyde Thio Semicarbazone]","solubility in the cell culture medium, in words",[4],solubility (1b) appears to be a problem
same,IC50,[5]; [12],< 300 nM
"CCC(=NNC(N)=S)c1ccc(Cl)c(Cl)c1 [Compound 2i, 3′,4′-Dichloropropiophenone Thio Semicarbazone]",IC50,[10],150 nM
same,"cruzain inhibitory activity, in words",[5],better IC50 values than 1i
same,IC50,[5]; [12],20 nM
same,increase in activity over 1i (cruzain),[5]; compared to 1i,~5 fold
"COc1ccccc1-c1ccc(C=NNC(N)=S)o1 [Compound 1c, 5-(2-Methoxyphenyl)-2-furancarboxaldehyde Thio Semicarbazone]","toxicity to host cells, in words",[6],Toxicity
same,IC50,[5],< 300 nM
same,melting point,,209.5 to 211.1 °C
"O=C(N[C@H](/C=C/S(=O)(=O)c1ccccc1)CCc1ccccc1)[C@H](Cc1ccccc1)NC(=O)N1CCOCC1 [Compound K002, morpholino urea-Phe-homoPhe-vinyl sulfone benzene]",IC50,"[11]; read-out: cathepsin B IC50 (μM) 5 min preincubation, 5 min preincubation",0.5 µM
same,IC50,"[11]; read-out: cathepsin B IC50 (μM) 30 min preincubation, 30 min preincubation",< 0.1 µM
same,time dependence of cruzain inhibition,[9],rapidly time-dependent
"COc1ccc2ccccc2c1C=NNC(N)=S [Compound 1n, 2-Methoxy-1-naphthaldehyde Thio Semicarbazone]","toxicity to host cells, in words",[6],Toxicity
same,IC50,[5]; [12],560 nM
"NC(=S)NN=Cc1ccc(-c2ccc(Br)cc2)o1 [Compound 1f, 5-(4-Bromophenyl)-2-furancarboxaldehyde Thio Semicarbazone]",survival of infected host cells / duration of trypanostatic effect,"[1]; inhibitor 10 μM (method), untreated infected cells die within 5 days",14 days
same,effect on T. cruzi in cell culture (trypanocidal / trypanostatic / inactive),[1],trypanostatic
same,"solubility in the cell culture medium, in words",[4],crystallized in the cell culture medium
same,IC50,[5]; [12],< 300 nM
